Data from publication PMC5562305, “Impact of novel palmitoylated prolactin-releasing peptide analogs on metabolic changes in mice with diet-induced obesity” (PLoS ONE, 2017).
Where “and” joins values, the source holds several entries; their conditions need not be identical. Identical values can stand only once. Starred links: 1 amine or outer side, 2 acyl side, 3 side chain; linkers in the order of their positions; H or OH if unused. Residues, ends and D or L forms follow the SMILES beside them. Groups on a side chain read outwards from the residue. *: point of attachment. TTDA(Palmitoyl) = CCCCCCCCCCCCCCCC(=O)NCCCOCCOCCOCCCN*; γGlu = O=C(O)[C@H](CCC(=O)[*:2])N[*:1]; Palmitoyl = CCCCCCCCCCCCCCCC(=O)*; Suc = O=C(CCC(=O)[*:2])[*:1]

Tests used:
[1] = Hormonal and biochemical (metabolic) parameters in blood of DIO mice; type: in vivo, C57BL/6 mice; conditions: mean ± SEM; for Glucose: blood; for Glucose / FFA / Insulin / Leptin / T Chol (total cholesterol) / Triglycerides: 5 mg/kg SC twice a day, 2 weeks; for HOMA index: fasting glucose x fasting insulin / 22.5, 2 weeks; for FFA / Insulin / Leptin / T Chol (total cholesterol) / Triglycerides: plasma
Excerpt: From 8 weeks of age, the mice were fed in house made high-fat (HF) diet to induce obesity. […] After twelve weeks of HF-diet feeding, two weeks of SC administration of lipidized PrRP analogs was initiated while the mice were kept on the HF diet. The following experimental groups were established: […] Food intake and BW were monitored daily during the dosing period. At the end of the experiment, the mice were sacrificed by decapitation. The trunk blood was collected, and the blood plasma was separated and stored at -20°C. The visceral adipose tissues (VAT) (from abdominal part), subcutaneous adipose tissues (SCAT) (all adipose tissue depots under the skin), perirenal adipose tissues, interscapular brown adipose tissues (BAT), and livers of all of the mice were dissected, weighed, flash-frozen in liquid nitrogen, and stored at -70°C for later extraction of RNA. The plasma insulin concentrations were measured using an RIA assay (Millipore, St. Charles, MI, USA), and the leptin concentrations were determined by ELISA (Millipore, St. Charles, MI, USA). The blood glucose levels were measured using a Glucocard glucometer (Arkray, Kyoto, Japan). The plasma triglyceride levels were measured using a quantitative enzymatic reaction (Sigma, St. Louis, MO, USA), and the free fatty acids (FFA) levels were determined using a colorimetric assay (Roche, Mannheim, Germany). Cholesterol was determined by colorimetric assay (Erba Lachema, Brno, Czech Republic). All measurements were performed according to the manufacturer's instructions.

[2] = biological target: T1, GPR10 (Homo sapiens, UniProt P49683); assay: Competitive binding of 125I-human PrRP31 to plated CHO-K1 cells expressing GPR10; design: host or cells: CHO-K1; conditions: for Ki: CHO-K1 cells, 0.03 nM radioligand, 60 min 25°C, Cheng-Prusoff, mean ± SEM of at least three experiments, SEM; for % binding human PrRP31 (GPR10): Ki relative to human PrRP31 = 100; for 125I-human PrRP31 binding to human GPR10, Ki: single experiments (replicates listed below each other)
T1 sequence (P49683 1-370): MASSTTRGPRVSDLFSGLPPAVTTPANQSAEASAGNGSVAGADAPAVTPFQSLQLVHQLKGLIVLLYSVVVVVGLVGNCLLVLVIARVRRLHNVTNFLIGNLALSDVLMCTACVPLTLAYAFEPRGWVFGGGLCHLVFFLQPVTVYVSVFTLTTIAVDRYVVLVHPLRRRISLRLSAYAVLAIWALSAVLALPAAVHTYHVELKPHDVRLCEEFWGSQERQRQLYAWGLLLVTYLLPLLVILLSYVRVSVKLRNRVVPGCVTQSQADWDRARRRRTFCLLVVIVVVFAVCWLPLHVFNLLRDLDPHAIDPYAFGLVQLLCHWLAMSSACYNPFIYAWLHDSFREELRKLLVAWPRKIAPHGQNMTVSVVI
Procedure: (§1) CHO-K1 cells expressing the GPR10 receptor (Thermo Fisher Scientific Inc., Waltham, MA, USA) were grown according to the manufacturer's instructions. Saturation and competitive binding experiments were performed according to the methods of Motulsky and Neubig. […] The experiments were performed on plated cells that were incubated for 60 min at 25°C. Non-specific binding was determined using 10^−5 M PrRP31. The binding assays involving human NPFF2 receptor membranes obtained from Perkin Elmer were performed as described in [18].
(§2) Data are presented as the means ± SEM. The competitive binding curves were plotted using GraphPad software (San Diego, CA, USA), and the best fits were compared for single-binding-site models (IC50 values were obtained from nonlinear regression analysis). Inhibition constants (Ki) were calculated from the IC50 values using the Cheng-Prusoff equation [23]. The concentration of the radioligand was 0.1 nM for cell membranes of CHO-K1 cells overexpressing NPFF2 and 0.03 nM for CHO-K1 cells overexpressing GPR10.

[3] = biological target: T2, human NPFF2 (Homo sapiens, UniProt Q9Y5X5); assay: Competitive binding of 125I-1DMe to human NPFF2 receptor membranes; conditions: for % binding human PrRP31 (NPFF2): Ki relative to human PrRP31 = 100
T2 construct: purchased Perkin Elmer; host or cells: CHO-K1 cell membranes
Procedure: as §1, §2

[4] = Cumulative food intake of DIO mice during 2-week SC treatment; type: in vivo, C57BL/6 mice; conditions: two weeks of SC treatment, 5 mg/kg twice a day, in words
Excerpt: (§3) Inbred C57BL/6 male mice that were 3 weeks old were obtained from Charles River Laboratories (Sulzfeld, Germany). […] From 8 weeks of age, the mice were fed in house made high-fat (HF) diet to induce obesity. […] After twelve weeks of HF-diet feeding, two weeks of SC administration of lipidized PrRP analogs was initiated while the mice were kept on the HF diet. The following experimental groups were established: […] Food intake and BW were monitored daily during the dosing period.

[5] = Body weight of DIO mice during 2-week SC treatment; type: in vivo, C57BL/6 mice; conditions: for Decrease of average BW at the end of the experiment: 5 mg/kg SC twice a day, 2 weeks
Excerpt: as §3

[6] = average of the single experiments

T2 sequence (Q9Y5X5 whole entry): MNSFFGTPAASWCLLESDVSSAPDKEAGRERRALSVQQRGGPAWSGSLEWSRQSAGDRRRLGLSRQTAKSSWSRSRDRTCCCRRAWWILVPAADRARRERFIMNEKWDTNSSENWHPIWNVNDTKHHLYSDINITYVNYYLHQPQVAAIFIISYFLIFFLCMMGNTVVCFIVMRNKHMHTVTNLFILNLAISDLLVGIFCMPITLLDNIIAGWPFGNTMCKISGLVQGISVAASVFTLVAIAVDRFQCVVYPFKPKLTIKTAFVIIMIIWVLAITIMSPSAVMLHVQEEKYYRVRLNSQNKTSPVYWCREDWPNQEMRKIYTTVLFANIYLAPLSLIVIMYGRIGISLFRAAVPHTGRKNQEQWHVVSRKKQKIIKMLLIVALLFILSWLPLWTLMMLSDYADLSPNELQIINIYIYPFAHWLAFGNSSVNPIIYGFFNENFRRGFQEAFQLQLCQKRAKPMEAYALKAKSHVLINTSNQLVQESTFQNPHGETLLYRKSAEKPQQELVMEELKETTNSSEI

Structure (SMILES): CCCCCCCCCCCCCCCC(=O)NCCCOCCOCCOCCCNC(=O)CCC(=O)NCCCC[C@H](NC(=O)[C@@H](NC(=O)[C@H](CCC(=O)O)NC(=O)[C@H](CCSC)NC(=O)[C@H](CO)NC(=O)[C@H](Cc1c[nH]cn1)NC(=O)[C@H](CCCNC(=N)N)NC(=O)[C@H](Cc1c[nH]cn1)NC(=O)[C@@H](NC(=O)[C@H](CCCNC(=N)N)NC(=O)[C@@H](N)CO)[C@@H](C)O)[C@@H](C)CC)C(=O)N[C@H](C(=O)N1CCC[C@H]1C(=O)N[C@@H](CC(=O)O)C(=O)N[C@H](C(=O)N[C@@H](CC(N)=O)C(=O)N1CCC[C@H]1C(=O)N[C@@H](C)C(=O)N[C@@H](Cc1c[nH]c2ccccc12)C(=O)N[C@@H](Cc1ccc(O)cc1)C(=O)N[C@@H](C)C(=O)N[C@@H](CO)C(=O)N[C@@H](CCCNC(=N)N)C(=O)NCC(=O)N[C@H](C(=O)N[C@@H](CCCNC(=N)N)C(=O)N1CCC[C@H]1C(=O)N[C@H](C(=O)NCC(=O)N[C@@H](CCCNC(=N)N)C(=O)N[C@@H](Cc1ccccc1)C(N)=O)C(C)C)[C@@H](C)CC)[C@@H](C)CC)[C@@H](C)O [analog 2] (H-SRTHRHSMEIK([Suc-TTDA(Palmitoyl)])TPDINPAWYASRGIRPVGRF-NH2; N-terminus assumed)
- Glucose [1]: 7.26 ± 0.31 mmol/L
- HOMA index [1]: 86.27 ± 0.64
- FFA [1]: 0.52 ± 0.02 mmol/L
- Insulin [1]: 1.55 ± 0.27 ng/mL
- Leptin [1]: 23.64 ± 3.54 ng/mL
- T Chol (total cholesterol) [1]: 3.96 ± 0.26 mmol/L
- Triglycerides [1]: 0.44 ± 0.04 mg/mL
- Ki [2]: 3.79 ± 0.47 nM
- % binding human PrRP31 (GPR10) [2]: 121%
- 125I-human PrRP31 binding to human GPR10, Ki [2]: 4.698 nM and 3.31 nM and 3.352 nM
- % binding human PrRP31 (NPFF2) [3]: 761%
- Ki [3, 6]: 6.57 nM
- Food intake compared to the saline-treated control group [4]: significantly reduced
- Decrease of average BW at the end of the experiment [5]: 11.75%

Structure (SMILES): CCCCCCCCCCCCCCCC(=O)N[C@@H](CCC(=O)NCCCC[C@H](NC(=O)[C@@H](NC(=O)[C@H](CCC(=O)O)NC(=O)[C@H](CCSC)NC(=O)[C@H](CO)NC(=O)[C@H](Cc1c[nH]cn1)NC(=O)[C@H](CCCNC(=N)N)NC(=O)[C@H](Cc1c[nH]cn1)NC(=O)[C@@H](NC(=O)[C@H](CCCNC(=N)N)NC(=O)[C@@H](N)CO)[C@@H](C)O)[C@@H](C)CC)C(=O)N[C@H](C(=O)N1CCC[C@H]1C(=O)N[C@@H](CC(=O)O)C(=O)N[C@H](C(=O)N[C@@H](CC(N)=O)C(=O)N1CCC[C@H]1C(=O)N[C@@H](C)C(=O)N[C@@H](Cc1c[nH]c2ccccc12)C(=O)N[C@@H](Cc1ccc(O)cc1)C(=O)N[C@@H](C)C(=O)N[C@@H](CO)C(=O)N[C@@H](CCCNC(=N)N)C(=O)NCC(=O)N[C@H](C(=O)N[C@@H](CCCNC(=N)N)C(=O)N1CCC[C@H]1C(=O)N[C@H](C(=O)NCC(=O)N[C@@H](CCCNC(=N)N)C(=O)N[C@@H](Cc1ccccc1)C(N)=O)C(C)C)[C@@H](C)CC)[C@@H](C)CC)[C@@H](C)O)C(=O)O [analog 1] (H-SRTHRHSMEIK([γGlu-Palmitoyl])TPDINPAWYASRGIRPVGRF-NH2; N-terminus assumed)
- Glucose [1]: 7.12 ± 0.36 mmol/L
- HOMA index [1]: 85.70 ± 0.39
- FFA [1]: 0.54 ± 0.03 mmol/L
- Insulin [1]: 1.57 ± 0.14 ng/mL
- Leptin [1]: 22.67 ± 2.72 ng/mL
- T Chol (total cholesterol) [1]: 4.26 ± 0.22 mmol/L
- Triglycerides [1]: 0.44 ± 0.03 mg/mL
- Ki [2]: 5.01 ± 1.03 nM
- % binding human PrRP31 (GPR10) [2]: 91%
- 125I-human PrRP31 binding to human GPR10, Ki [2]: 9.92 nM and 5.47 nM and 4.23 nM and 3.01 nM and 1.75 nM and 3.77 nM and 6.96 nM
- % binding human PrRP31 (NPFF2) [3]: 128%
- Ki ([3]; membranes of CHO-K1 cells overexpressing NPFF2, 0.1 nM radioligand, Cheng-Prusoff, mean ± SEM, SEM): 39.1 ± 23.1 nM
- Food intake compared to the saline-treated control group [4]: did not reach statistical significance
- Decrease of average BW at the end of the experiment [5]: 12%

Structure (SMILES): CCCCCCCCCCCCCCCC(=O)NCCCOCCOCCOCCCNC(=O)CCC(=O)NCCCC[C@H](NC(=O)[C@@H](NC(=O)[C@H](CCC(=O)O)NC(=O)[C@H](CCSC)NC(=O)[C@H](CO)NC(=O)[C@H](Cc1c[nH]cn1)NC(=O)[C@H](CCCNC(=N)N)NC(=O)[C@H](Cc1c[nH]cn1)NC(=O)[C@@H](NC(=O)[C@H](CCCNC(=N)N)NC(=O)[C@H](CO)NC(=O)CCC(=O)NCCCOCCOCCOCCCNC(=O)CCCCCCCCCCCCCCC)[C@@H](C)O)[C@@H](C)CC)C(=O)N[C@H](C(=O)N1CCC[C@H]1C(=O)N[C@@H](CC(=O)O)C(=O)N[C@H](C(=O)N[C@@H](CC(N)=O)C(=O)N1CCC[C@H]1C(=O)N[C@@H](C)C(=O)N[C@@H](Cc1c[nH]c2ccccc12)C(=O)N[C@@H](Cc1ccc(O)cc1)C(=O)N[C@@H](C)C(=O)N[C@@H](CO)C(=O)N[C@@H](CCCNC(=N)N)C(=O)NCC(=O)N[C@H](C(=O)N[C@@H](CCCNC(=N)N)C(=O)N1CCC[C@H]1C(=O)N[C@H](C(=O)NCC(=O)N[C@@H](CCCNC(=N)N)C(=O)N[C@@H](Cc1ccccc1)C(N)=O)C(C)C)[C@@H](C)CC)[C@@H](C)CC)[C@@H](C)O [analog 3] ({TTDA(Palmitoyl)-Suc}-SRTHRHSMEIK([Suc-TTDA(Palmitoyl)])TPDINPAWYASRGIRPVGRF-NH2)
- Glucose [1]: 7.91 ± 0.46 mmol/L
- HOMA index [1]: 163.13 ± 1.06
- FFA [1]: 0.62 ± 0.03 mmol/L
- Insulin [1]: 2.69 ± 0.30 ng/mL
- Leptin [1]: 40.30 ± 5.57 ng/mL
- T Chol (total cholesterol) [1]: 4.86 ± 0.17 mmol/L
- Triglycerides [1]: 0.63 ± 0.05 mg/mL
- Ki [2]: 32.4 ± 3.57 nM
- % binding human PrRP31 (GPR10) [2]: 14%
- 125I-human PrRP31 binding to human GPR10, Ki [2]: 39 nM and 26.7 nM and 31.5 nM
- % binding human PrRP31 (NPFF2) [3]: 580%
- Ki [3, 6]: 8.63 nM
- Food intake compared to the saline-treated control group [4]: did not have any significant effects
- Effect on BW ([5]; two weeks of SC treatment, 5 mg/kg twice a day, in words): did not have any significant effects
